# According to patent publication US4971967A, “Quinolinecarboxylic acid derivatives, antibacterial compositions and use” (Kanebo Ltd, priority 1989, dated 1990):
# Key:
# [1] = system: Staphylococcus aureus IID 803; test: Effect on treatment of general infectious disease, S. aureus IID 803 (Experiment 4); type: in vivo, ddY male mice infected with Staphylococcus aureus; conditions: IID803, 168 h, oral, 1 h after i.p. infection, 2.1×10^7 CFU/mouse, survival after one week
# Experimental: (§1) The test microorganisms were subjected to standing culture in Trypto-Soya Agar "Nissui" (made by Nissui Seiyaku K.K., Japan) at 37° C. for 16 to 18 hours. The culture was then diluted with PBS (Dulbecco's phosphate buffered saline) and mixed with an equivalent amount of 10% (w/v) Mucin (BACTO MUCIN BACTERIOLOGICAL, made by Difco Co.) to prepare a microorganism solution. The thus prepared microorganism solution (0.5 ml each) was intraperitoneally inoculated to ddY male mice (5 weeks age, weighing 25-28 g, 5 mice in each group), to infect the animals. One hour after the infection, the compound (A) or (J) of the present invention or the known compound (X) suspended in 1% (w/v) aqueous gum arabic or the known compound (Y) dissolved in sterilized distilled water was orally adiministered to mice.
# (§2) The mice were daily observed for one week, and from the survival number of mice after one week, the 50% effective dose (ED50) was calculated by Weil method.
# Staphylococcus aureus IID 803 (2.1×10^7 CFU/mouse)
# (§3) The procedure of Experiment 3 was repeated except that ddY male mice weighing 24 to 28 g were employed.
# [2] = system: Pseudomonas aeruginosa NCTC 10490; test: Antibacterial activity (MIC), P. aeruginosa NCTC 10490; type: cell-based; conditions: Pseudomonas aeruginosa, NCTC10490, Pseudomonas aeruginosa NCTC 10490, Gram -; read-out: Minimum inhibitory concentration (MIC)
# Experimental: (§4) The compounds of the present invention (A, C, D, E, F, G, H, I, J, L, O and P) and the known compound (X) as reference were dissolved in 0.1 N aqueous sodium hydroxide to prepare a solution of 5000 μg/ml in concentration. The compounds of the present invention (B, K, M and N) and the known compound (Y) were dissolved in sterilized distilled water to prepare a solution of 5000 μg/ml in concentration. Each solution was diluted with sterilized distilled water to prepare a standard solution with a concentration of each test compound: 1000 μg/ml. The test was carried out by a method as appointed by Japan Society of Chemotherapy [cf. Chemotherapy, 29, 76-79 (1981)(TOKYO)].
# [3] = system: Citrobacter freundii NIHJ 10018-68; test: Antibacterial activity (MIC), Citrobacter freundii NIHJ 10018-68; type: cell-based; conditions: Citrobacter freundii, NIHJ10018, Citrobacter freundii NIHJ 10018-68, Gram -; read-out: Minimum inhibitory concentration (MIC)
# Experimental: as §4
# Enterobacter cloacae 963 = test: Antibacterial activity (MIC), Enterobacter cloacae 963; type: cell-based; conditions: Enterobacter cloacae, 963, Enterobacter cloacae 963, Gram -; read-out: Minimum inhibitory concentration (MIC)
# Experimental: as §4
# [4] = system: Streptococcus faecalis IID 682; test: Antibacterial activity (MIC), Streptococcus faecalis IID 682; type: cell-based; conditions: Enterococcus faecalis, IID682, Streptococcus faecalis IID 682, Gram +; read-out: Minimum inhibitory concentration (MIC)
# Experimental: as §4
# [5] = system: Staphylococcus aureus IID 803; test: Antibacterial activity (MIC), S. aureus IID 803; type: cell-based; conditions: IID803; Staphylococcus aureus IID 803, Gram +; read-out: Minimum inhibitory concentration (MIC)
# Experimental: as §4
# [6] = system: Bacillus subtilis ATCC 6633; test: Antibacterial activity (MIC), Bacillus subtilis ATCC 6633; type: cell-based; conditions: Bacillus subtilis, ATCC6633, Bacillus subtilis ATCC 6633, Gram +; read-out: Minimum inhibitory concentration (MIC)
# Experimental: as §4
# Proteus vulgaris OX-19 = test: Antibacterial activity (MIC), Proteus vulgaris OX-19; type: cell-based; conditions: OX19; Proteus vulgaris OX-19, Gram -; read-out: Minimum inhibitory concentration (MIC)
# Experimental: as §4
# [7] = system: Enterobacter aerogenes ATCC 13048; test: Antibacterial activity (MIC), Enterobacter aerogenes ATCC 13048; type: cell-based; conditions: Klebsiella aerogenes, ATCC13048; Enterobacter aerogenes ATCC 13048, Gram -; read-out: Minimum inhibitory concentration (MIC)
# Experimental: as §4
# [8] = Acute toxicity (LD50) (Experiment 6); conditions: mouse, in vivo; oral, mice fasted 18 hours, observed for a week
# Experimental: (§5) The compound (O) or (P) of the present invention was suspended in sterilized distilled water to prepare a suspension. The suspension was orally adminstered to ddY male mice (5 weeks age, weighing 20 to 25 g, 5 mice in each group), which had been fasted for 18 hours.
# [9] = system: Pseudomonas aeruginosa IFO 3445; test: Antibacterial activity (MIC), P. aeruginosa IFO 3445; type: cell-based; conditions: Pseudomonas aeruginosa, IFO3445, Pseudomonas aeruginosa IFO 3445, Gram -; read-out: Minimum inhibitory concentration (MIC)
# Experimental: as §4
# [10] = system: Staphylococcus epidermidis IAM-1296; test: Antibacterial activity (MIC), S. epidermidis IAM-1296; type: cell-based; conditions: Staphylococcus epidermidis, IAM1296, Staphylococcus epidermidis IAM-1296, Gram +; read-out: Minimum inhibitory concentration (MIC)
# Experimental: as §4
# [11] = system: Proteus mirabilis IFO 3849; test: Antibacterial activity (MIC), Proteus mirabilis IFO 3849; type: cell-based; conditions: IFO3849; Proteus mirabilis IFO 3849, Gram -; read-out: Minimum inhibitory concentration (MIC)
# Experimental: as §4
# [12] = system: Serratia marcescens IAM 1184; test: Antibacterial activity (MIC), Serratia marcescens IAM 1184; type: cell-based; conditions: Serratia marcescens, IAM1184, Serratia marcescens IAM 1184, Gram -; read-out: Minimum inhibitory concentration (MIC)
# Experimental: as §4
# [13] = system: Pseudomonas aeruginosa E-2; test: Antibacterial activity (MIC), P. aeruginosa E-2; type: cell-based; conditions: E2; Pseudomonas aeruginosa E-2, Gram -; read-out: Minimum inhibitory concentration (MIC)
# Experimental: as §4
# [14] = system: Acinetobacter calcoaceticus AC 54; test: Antibacterial activity (MIC), Acinetobacter calcoaceticus AC 54; type: cell-based; conditions: AC54; Acinetobacter calcoaceticus AC 54, Gram -; read-out: Minimum inhibitory concentration (MIC)
# Experimental: as §4
# [15] = system: Staphylococcus aureus FDA 209P JC-1; test: Antibacterial activity (MIC), S. aureus FDA 209P JC-1; type: cell-based; conditions: FDA209P; Staphylococcus aureus FDA 209P JC-1, Gram +; read-out: Minimum inhibitory concentration (MIC)
# Experimental: as §4
# Shigella sonnei EW-33 = test: Antibacterial activity (MIC), Shigella sonnei EW-33; type: cell-based; conditions: Shigella sonnei, EW33, Shigella sonnei EW-33, Gram -; read-out: Minimum inhibitory concentration (MIC)
# Experimental: as §4
# [16] = system: Klebsiella pneumoniae PCI-602; test: Antibacterial activity (MIC), Klebsiella pneumoniae PCI-602; type: cell-based; conditions: PCI602; Klebsiella pneumoniae PCI-602, Gram -; read-out: Minimum inhibitory concentration (MIC)
# Experimental: as §4
# [17] = system: Escherichia coli NIHJ JC-2; test: Antibacterial activity (MIC), E. coli NIHJ JC-2; type: cell-based; conditions: NIHJJC2; Escherichia coli NIHJ JC-2, Gram -; read-out: Minimum inhibitory concentration (MIC)
# Experimental: as §4
# [18] = system: Salmonella typhimurium IID 971; test: Antibacterial activity (MIC), Salmonella typhimurium IID 971; type: cell-based; conditions: Salmonella enterica; Salmonella typhimurium IID 971, Gram -; read-out: Minimum inhibitory concentration (MIC)
# Experimental: as §4
# Escherichia coli KC-14 = test: Antibacterial activity (MIC), E. coli KC-14; type: cell-based; conditions: KC14; Escherichia coli KC-14, Gram -; read-out: Minimum inhibitory concentration (MIC)
# Experimental: as §4
# [19] = Low toxicity (Experiments 5 and 6); type: in vivo, ddY male mice; conditions: result in words
# Experimental: The compound (A) or (J) of the present invention was suspended in 1% (w/v) aqueous gum arabic to prepare a suspension in concentration of 100 mg/ml. The suspension was orally administered to ddY male mice (5 weeks age, weighing 20 to 25 g, 5 mice in each group), which had been fasted for 18 hours, at a rate of 2000 mg/kg body weight of the compound (A) or (J).
# as §5
# [20] = system: Pseudomonas aeruginosa E-2; test: Effect on treatment of general infectious disease, P. aeruginosa E-2 (Experiment 4); type: in vivo, ddY male mice infected with Pseudomonas aeruginosa; conditions: E2, 168 h, oral, 1 h after i.p. infection, 3.4×10^4 CFU/mouse, survival after one week
# Experimental: as §1, §2
# Pseudomonas aeruginosa E-2 (3.4×10^4 CFU/mouse)
# as §3
# [21] = system: Micrococcus luteus ATCC 9341; test: Antibacterial activity (MIC), Micrococcus luteus ATCC 9341; type: cell-based; conditions: ATCC9341; Micrococcus luteus ATCC 9341, Gram +; read-out: Minimum inhibitory concentration (MIC)
# Experimental: as §4
# infection = test: Protective effects against infection (Experiments 3 and 4); type: in vivo, ddY male mice; conditions: result in words
# Experimental: as §1, §2, §3
# [22] = system: Morganella morganii IFO 3848; test: Antibacterial activity (MIC), Morganella morganii IFO 3848; type: cell-based; conditions: Morganella morganii, IFO3848, Morganella morganii IFO 3848, Gram -; read-out: Minimum inhibitory concentration (MIC)
# Experimental: as §4
structure (smiles),measurement,setting,value
"CC1CN(c2c(F)cc3c(=O)c(C(=O)O)c4scc5n4c3c2N(C)C5)CCN1C (stereo not drawn) [Compound (O), 9,1-(Methylimino)methano-7-fluoro-8-(3,4-dimethyl-1-piperazinyl)-5-oxo-5H-thiazolo[3,2-a]-quinoline-4-carboxylic acid]",ED50,[1],2.8 mg/kg
same,MIC,[2],0.78 µg/mL
same,MIC,[3],0.39 µg/mL
same,MIC,Enterobacter cloacae 963,0.1 µg/mL
same,MIC,[4],0.1 µg/mL
same,MIC,[5],0.025 µg/mL
same,MIC,[6],0.0125 µg/mL
same,MIC,Proteus vulgaris OX-19,0.025 µg/mL
same,MIC,[7],0.1 µg/mL
same,LD50 at 168 h,[8],1410 mg/kg
same,MIC,[9],1.56 µg/mL
same,MIC,[10],0.05 µg/mL
same,MIC,[11],0.39 µg/mL
same,MIC,[12],0.39 µg/mL
same,MIC,[13],0.78 µg/mL
same,MIC,[14],0.025 µg/mL
same,MIC,[15],0.025 µg/mL
same,MIC,Shigella sonnei EW-33,0.05 µg/mL
same,MIC,[16],0.006 µg/mL
same,MIC,[17],0.05 µg/mL
same,MIC,[18],0.2 µg/mL
same,MIC,Escherichia coli KC-14,0.05 µg/mL
same,toxicity,[19],low toxicity
same,ED50,[20],9.4 mg/kg
same,MIC,[21],0.39 µg/mL
same,protective effects against infection,infection,excellent protective effects against infection
same,MIC,[22],0.2 µg/mL
